Columns and labels:
Format in all cases: biochemical
FXIIa alpha (Human) = target: T1, FXIIa alpha (Human) (Homo sapiens, UniProt P00748); assay: Determination of Factor XIIa inhibition, chromogenic substrate S-2302; conditions: 10 nM FXIIa, 450 μM S-2302, 37° C., pH 7.4; Ki converted from IC50
T1 construct: FXIIa alpha
T1 sequence (P00748 373-615 limits assumed): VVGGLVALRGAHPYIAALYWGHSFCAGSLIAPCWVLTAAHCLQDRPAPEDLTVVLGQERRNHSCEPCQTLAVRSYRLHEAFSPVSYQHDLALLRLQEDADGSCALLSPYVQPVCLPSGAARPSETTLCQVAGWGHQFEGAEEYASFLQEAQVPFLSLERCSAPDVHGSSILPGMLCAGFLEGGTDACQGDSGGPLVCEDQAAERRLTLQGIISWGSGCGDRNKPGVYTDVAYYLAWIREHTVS
T1 sequence (P00748 20-372 partner limits assumed): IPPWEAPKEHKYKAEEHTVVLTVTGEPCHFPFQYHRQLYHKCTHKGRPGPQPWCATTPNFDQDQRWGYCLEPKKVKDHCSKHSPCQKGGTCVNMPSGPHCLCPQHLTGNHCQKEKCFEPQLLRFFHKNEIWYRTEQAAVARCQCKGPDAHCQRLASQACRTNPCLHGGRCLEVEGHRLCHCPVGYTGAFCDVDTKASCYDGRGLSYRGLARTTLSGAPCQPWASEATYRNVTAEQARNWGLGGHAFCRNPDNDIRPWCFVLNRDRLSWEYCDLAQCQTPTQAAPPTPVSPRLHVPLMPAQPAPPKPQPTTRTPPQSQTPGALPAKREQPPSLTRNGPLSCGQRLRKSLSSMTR
Experimental: (§1) The activities of the compounds of the invention have been determined in vitro using the following assays protocols for the screening of activity of FXIa and other proteases. Each of these assays were performed in a purified system employing the use of chromogenic assays in microplate plate wells. Chromogenic peptide substrates mimicking natural protein substrates are attached via an amide bond to a chromogenic group. Paranitroaniline (pNA) is released from the peptide following catalyses by the proteolytic enzyme; the absorbance increases and can be monitored at 405 nm.
(§2) All compounds were dissolved in 100% (v/v) DMSO to a stock concentration of 10 mM, the highest concentration of compound used in each assay is 500 μM. The final concentrations of DMSO were 5% (v/v) in 50 mM Tris 137 mM NaCl pH 7.4. Where no test compound was added a final concentration of 5% DMSO was employed.
[…] activity was measured using a chromogenic substrate S-2302 (Chromogenix). Various concentrations of compound were incubated with 10 nM of FXIIa and incubated at 37° C. for 10 minutes in 50 mM Tris, 137 mM NaCl, pH 7.4, prior to the addition of a final concentration of 450 μM S-2302 chromogenic substrate. Kinetic readings at 405 nm were monitored every 12 secs for a total duration of 3 hours at 37° C. Gradients of initial rates were determined and employed to calculate IC50 values. Values of IC50 were converted to Ki values based on the formula:
(§3) Ki=IC50/(1+[Substrate]/Km)
The activity of the compounds of the invention has been categorised based on the Ki values, the categories being “*”, “**” and “***”. […] The category refers to compounds with a Ki value of 0.2 μM to 2 μM.

Thrombin (human) = target: T2, Thrombin (human) (Homo sapiens, UniProt P00734); assay: Determination of selectivity: thrombin chromogenic assay (GPR substrate); conditions: fold selectivity for FXIIa over thrombin; thrombin 5 nM, GPR 250 μM
T2 construct: FXa (5 nM) and thrombin (5 nM)
Experimental: as §1, §2
(§4) To determine selectivity of test compounds, these test compounds were assayed for inhibitory activity against other serine proteases including FXa and thrombin. Essentially compounds at increasing concentrations were incubated with each enzyme: FXa (5 nM) and thrombin (5 nM), for 10 mins at 37° C. followed the appropriate chromogenic substrate, S2765 (350 μM), and GPR (250 μM) respectively in 50 mM Tris, 137 mM NaCl, pH 7.4. Chromogenic substrates S2765 was from Chromogenix, and GPR from Bachem. Kinetic readings at 405 nm were monitored every 12 secs for a total duration of 3 hours at 37° C. Gradients of initial rates were determined and employed to calculate IC50 values. Values of IC50 were converted to Ki values based on the formula:
as §3
(§5) Where [Substrate] denotes the concentration of substrate used in the assay and Km is the determined value of each enzyme with its own substrate.
The fold selectivity for FXIIa over thrombin for the compounds of the invention has been categorised based on the fold selectivity values, the categories being “+”, “++” and “+++”. The category “+” refers to fold selectivity values less than 10. The category “++” refers to a fold selectivity value of 10 to 100. The category “+++” refers to fold selectivity values greater than 100.

FXa (human) = FXa (human) (Homo sapiens, UniProt P00742); assay: Determination of selectivity: FXa chromogenic assay (S2765 substrate); conditions: fold selectivity for FXIIa over FXa; FXa 5 nM, S2765 350 μM
Chain of FXa (human) (P00742 235-488 limits assumed): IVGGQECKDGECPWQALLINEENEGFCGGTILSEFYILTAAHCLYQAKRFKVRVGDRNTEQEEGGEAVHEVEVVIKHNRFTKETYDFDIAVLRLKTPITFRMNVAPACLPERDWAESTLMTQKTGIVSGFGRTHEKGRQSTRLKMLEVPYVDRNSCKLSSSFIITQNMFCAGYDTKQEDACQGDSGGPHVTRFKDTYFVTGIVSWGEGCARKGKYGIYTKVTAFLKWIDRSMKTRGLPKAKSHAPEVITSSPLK
Chain of FXa (human) (P00742 41-179 partner limits assumed): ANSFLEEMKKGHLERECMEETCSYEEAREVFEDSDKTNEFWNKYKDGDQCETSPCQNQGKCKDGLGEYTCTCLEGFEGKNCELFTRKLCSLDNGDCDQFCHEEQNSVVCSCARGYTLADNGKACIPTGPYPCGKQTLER
Experimental: as §1, §2, §4, §3, §5
The fold selectivity for FXIIa over FXa for the compounds of the invention has been categorised based on the fold selectivity values, the categories being “o”, “oo” and “ooo”. The category “o” refers to fold selectivity values less than 10. The category “oo” refers to a fold selectivity value of 10 to 100. The category “ooo” refers to fold selectivity values greater than 100.

| Structure (SMILES) | Ki (FXIIa alpha (Human)) [nM] | Thrombin (human)/FXIIa alpha (human) fold selectivity (Thrombin (human)) | FXa (human)/FXIIa alpha (human) fold selectivity (FXa (human)) |
| --- | --- | --- | --- |
| N=C(N)c1ccc(CNC(=O)C2CCCCN2C(=O)C(CCc2ccccc2)NS(=O)(=O)Cc2ccccc2)cc1 (stereo not shown) [Compound M00556] | 200 to 2000 | + (fold selectivity values less than 10) | o (fold selectivity values less than 10) |
| Nc1cc(CNC(=O)[C@@H]2CN(C(=O)OCc3ccccc3)CCN2C(=O)[C@H](N)CCc2ccccc2)ccn1 [Compound M00832] | > 2000 | ++ (a fold selectivity value of 10 to 100) | oo (a fold selectivity value of 10 to 100) |
| CN(C)[C@H](CCc1ccccc1)C(=O)N1CCN(C(=O)OCc2ccccc2)C[C@H]1C(=O)NCc1ccnc(N)c1 [Compound M00833] | > 2000 | ++ (a fold selectivity value of 10 to 100) | oo (a fold selectivity value of 10 to 100) |
| COc1cc(CNC(=O)[C@@H]2CN(C(=O)OCc3ccccc3)CCN2C(=O)[C@H](N)CCc2ccccc2)ccc1CN [Compound M00834] | < 200 | +++ (fold selectivity values greater than 100) | ooo (fold selectivity values greater than 100) |
| NCc1ccc(CNC(=O)C2CN(c3ccccc3)CCN2C(=O)C(N)CCc2ccccc2)cc1 (stereo not shown) [Compound M00836] | > 2000 | – | – |
| CS(=O)(=O)N1CCN(C(=O)[C@H](N)CCc2ccccc2)[C@H](C(=O)NCc2ccc(CN)cc2)C1 [Compound M00838, (2S)-1-[(2R)-2-amino-4-phenylbutanoyl]-N-{[4-(aminomethyl)phenyl]methyl}-4-methanesulfonylpiperazine-2-carboxamide] | > 2000 | + (fold selectivity values less than 10) | o (fold selectivity values less than 10) |
| NCc1ccc(CNC(=O)C2CN(C(=O)CCc3ccccc3)CCN2C(=O)C(N)CCc2ccccc2)cc1 (stereo not shown) [Compound M00840] | > 2000 | – | – |
| NCc1ccc(CNC(=O)C2CN(S(=O)(=O)CCc3ccccc3)CCN2C(=O)C(N)CCc2ccccc2)cc1 (stereo not shown) [Compound M00842] | > 2000 | – | – |
| NCc1ccc(CNC(=O)C2CN(C(=O)Cc3ccccc3)CCN2C(=O)C(N)CCc2ccccc2)cc1 (stereo not shown) [Compound M00843] | > 2000 | +++ (fold selectivity values greater than 100) | oo (a fold selectivity value of 10 to 100) |
| NCc1ccc(CNC(=O)C2CN(C(=O)c3ccccc3)CCN2C(=O)C(N)CCc2ccccc2)cc1 (stereo not shown) [Compound M00844] | > 2000 | – | – |
| NCc1ccc(CNC(=O)C2CN(C(=O)NCc3ccccc3)CCN2C(=O)C(N)CCc2ccccc2)cc1 (stereo not shown) [Compound M00847] | > 2000 | – | – |
| CN(C)C(=O)N1CCN(C(=O)C(N)CCc2ccccc2)C(C(=O)NCc2ccc(CN)cc2)C1 (stereo not shown) [Compound M00848] | > 2000 | – | – |
| CC(=O)N1CCN(C(=O)C(N)CCc2ccccc2)C(C(=O)NCc2ccc(CN)cc2)C1 (stereo not shown) [Compound M00850] | > 2000 | – | – |
| Cc1cc(CNC(=O)[C@@H]2CN(C(=O)OCc3ccccc3)CCN2C(=O)[C@H](N)CCc2ccccc2)cc(N)n1 [Compound M00858] | > 2000 | ++ (a fold selectivity value of 10 to 100) | oo (a fold selectivity value of 10 to 100) |
| CC(C(=O)N1CCN(C(=O)C(N)CCc2ccccc2)C(C(=O)NCc2ccc(CN)cc2)C1)c1ccccc1 (stereo not shown) [Compound M00859] | > 2000 | – | – |
| NCc1ccc(CNC(=O)C2CNCCN2C(=O)C(N)CCc2ccccc2)cc1 (stereo not shown) [Compound M00862] | > 2000 | – | – |

| Structure (SMILES) | Ki (FXIIa alpha (Human)) [nM] | Thrombin (human)/FXIIa alpha (human) fold selectivity (Thrombin (human)) | FXa (human)/FXIIa alpha (human) fold selectivity (FXa (human)) |
| --- | --- | --- | --- |
| Cn1nnc2cc(CNC(=O)[C@@H]3CN(C(=O)Oc4ccccc4)CCN3C(=O)[C@H](N)CCc3ccccc3)ccc21 [Compound M00871] | > 2000 | ++ (a fold selectivity value of 10 to 100) | oo (a fold selectivity value of 10 to 100) |
| C#CCOC(=O)N1CCN(C(=O)C(N)CCc2ccccc2)C(C(=O)NCc2ccc3c(c2)nnn3C)C1 (stereo not shown) [Compound M00880] | > 2000 | – | – |
| Cn1ccnc1COC(=O)N1CCN(C(=O)C(N)CCc2ccccc2)C(C(=O)NCc2ccc3c(c2)nnn3C)C1 (stereo not shown) [Compound M00883] | > 2000 | – | – |
| Cn1nnc2cc(CNC(=O)C3CN(c4ncccn4)CCN3C(=O)C(N)CCc3ccccc3)ccc21 (stereo not shown) [Compound M00891] | > 2000 | – | – |
| COc1ccc(OC(=O)N2CCN(C(=O)[C@H](N)CCc3ccccc3)[C@H](C(=O)NCc3ccc4c(c3)nnn4C)C2)cc1 [Compound M00932] | > 2000 | ++ (a fold selectivity value of 10 to 100) | oo (a fold selectivity value of 10 to 100) |
| Cn1nnc2cc(CNC(=O)[C@@H]3CN(C(=O)Oc4ccc(Cl)cc4)CCN3C(=O)[C@H](N)CCc3ccccc3)ccc21 [Compound M00933] | > 2000 | ++ (a fold selectivity value of 10 to 100) | oo (a fold selectivity value of 10 to 100) |
| Cn1nnc2cc(CNC(=O)[C@@H]3CN(c4ccc5ncccc5c4)CCN3C(=O)[C@H](N)CCc3ccccc3)ccc21 [Compound M00940, (2S)-1-[(2R)-2-amino-4-phenylbutanoyl]-N-[(1-methyl-1H-1,2,3-benzotriazol-5-yl)methyl]-4-(quinolin-6-yl)piperazine-2-carboxamide] | > 2000 | – | – |
| Cn1nnc2cc(CNC(=O)C3CN(C(=O)OCc4ccc(Cl)cc4)CCN3C(=O)C(N)CCc3ccccc3)ccc21 (stereo not shown) [Compound M00942] | > 2000 | – | – |
| NCc1ccc(CNC(=O)C2CC(O)CCN2C(=O)C(N)CCc2ccccc2)cc1 (stereo not shown) [Compound M05071] | > 2000 | – | – |
| NC(CCC(=O)N1CCCC1)C(=O)N1CCN(C(=O)OCc2ccccc2)CC1C(=O)NCc1ccnc(O)c1 (stereo not shown) [Compound M05263] | > 2000 | – | – |
| Cn1nnc2cc(CNC(=O)C3CN(C(=O)OCc4ccccc4)CCN3C(=O)C(N)C3Cc4ccccc4C3)ccc21 (stereo not shown) [Compound M05273] | > 2000 | – | – |
| NC(CCC(=O)N1CCCC1)C(=O)N1CCN(C(=O)OCc2ccccc2)CC1C(=O)NCc1ccc2cnccc2c1 (stereo not shown) [Compound M05275] | > 2000 | – | – |
| NC(CCC(=O)N1CCCC1)C(=O)N1CCN(C(=O)OCc2ccccc2)CC1C(=O)NCc1ccc2cnc(O)cc2c1 (stereo not shown) [Compound M05277] | > 2000 | ++ (a fold selectivity value of 10 to 100) | – |
| Cn1nnc2cc(CNC(=O)C3CN(C(=O)OCc4ccccc4)CCN3C(=O)C(N)c3cc4ccccc4o3)ccc21 (stereo not shown) [Compound M05286] | > 2000 | – | – |
| Cc1cc2cc(CNC(=O)C3CN(C(=O)OCc4ccccc4)CCN3C(=O)C(N)CCC(=O)N3CCCC3)ccc2cn1 (stereo not shown) [Compound M05292] | > 2000 | – | – |
